Results on 6 compounds are retold here after US9144539B2, “Methioninase inhibitor and composition and food or drink containing the same” (Lotte Co., Ltd., priority 2006, dated 2015).

The test addresses T1, methioninase (Fusobacterium nucleatum subsp. nucleatum, UniProt Q8RDT4).
T1 construct: disrupted by sonication to obtain the enzyme; endogenous in cells; host or cells: Fusobacterium nucleatum JCM 8532, sonicated cell lysate (unpurified)
T1 sequence (Q8RDT4 1-395): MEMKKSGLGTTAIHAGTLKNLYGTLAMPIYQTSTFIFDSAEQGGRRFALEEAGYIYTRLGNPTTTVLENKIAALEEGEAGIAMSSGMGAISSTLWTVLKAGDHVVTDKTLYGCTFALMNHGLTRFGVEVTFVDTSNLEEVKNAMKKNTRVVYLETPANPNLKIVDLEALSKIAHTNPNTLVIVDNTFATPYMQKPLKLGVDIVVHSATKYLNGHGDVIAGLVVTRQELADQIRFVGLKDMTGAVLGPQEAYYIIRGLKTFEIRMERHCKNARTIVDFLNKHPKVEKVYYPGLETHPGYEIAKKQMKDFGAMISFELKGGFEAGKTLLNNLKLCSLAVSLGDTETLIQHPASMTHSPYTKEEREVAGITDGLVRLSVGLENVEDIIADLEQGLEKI
Description: Cell-free methioninase inhibition test (α-ketobutyrate production from methionine). In kind it is biochemical. The following applies: cell-free enzyme from sonicated bacteria; read-out: IC50 against methioninase (converted).
In general, IC50 refers to the concentration needed to halve the response being measured. As for `CC(C)=CCC/C(C)=C/Cc1cc(C(=O)O)cc(CC=C(C)C)c1O` [Myrsinoic acid A, myrsinoic acid A], the 50% inhibitory concentration (IC50) was 14.6 µM. Turning to `CC(C)=CCCC(C)(O)C1Cc2cc(C(=O)O)cc(CC=C(C)C)c2O1` (stereo not drawn) [Myrsinoic acid B, myrsinoic acid B], the IC50 is 11.2 µM. Take `CC(C)=CCC[C@]1(C)Oc2c(CC=C(C)C)cc(C(=O)O)cc2C[C@@H]1O` [Myrsinoic acid C, myrsinoic acid C]: the IC50 was 13.9 µM. For `CC(C)=CCC/C(C)=C/Cc1cc(C(=O)O)cc(C/C=C(\C)CCC=C(C)C)c1O` [Myrsinoic acid E (Synthesized), Myrsinoic acid E] the value was 12.2 µM; for `CC(C)=CCC/C(C)=C/Cc1cc(C(=O)O)cc(C/C=C(\C)CCC=C(C)C)c1O` [Myrsinoic acid E, myrsinoic acid E], 12.2 µM; for `CC(C)=CC/C=C(\C)C1Cc2cc(C(=O)O)cc(CC=C(C)C)c2O1` (stereo not drawn) [Myrsinoic acid F, myrsinoic acid F], 8.81 µM.
